Assays:
E. coli PBP3 = target: T1, E. coli PBP3 (Escherichia coli, UniProt P0AD68); assay: Bocillin FL competition binding assay, PBP3; set-up: species or system Escherichia coli K12; conditions: 15 min pre-incubation
T1 construct: 100 μg's of total membrane protein extracts containing PBPs; endogenous in cells; host or cells: Escherichia coli K12, membrane protein fraction
Summary of the method: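 E. coli K12 membrane extracts (100 µg protein) pre-incubated 15 min with compound (0.005–2,480 µg/mL) in pH 7 phosphate/350 mM NaCl, then labelled with Bocillin FL 30 min at 35°C; SDS-PAGE fluorescence (ex 450/em 520 nm), μg/mL reported. PBP1a/1b unresolved, reported combined.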

[1] = tested on: E. coli DH5a harboring IMP-18; assay: Broth microdilution MIC, engineered E. coli expressing IMP-18; format: cell-based; conditions: Escherichia coli, read-out: MIC, β-lactamase IMP
Protocol: To determine the ability of test compounds to potentiate the inhibition of the growth of bacterial strains, classic cell based broth microdilution MIC assays were employed. MIC assays are performed according to CLSI methods except where otherwise noted (CLSI, 2011 and CLSI, 2009). The reference strain S. aureus ATCC 29213 and the hyper-permeable E. coli 901C were used to determine the ability of the PBP compounds to inhibit bacterial growth. Briefly, cryo-preserved bacterial cultures of clinical strains are streaked for isolation on appropriate agar medium, in this case Mueller Hinton II agar. Following incubation to allow formation of colonies these plates are sealed with parafilm and stored refrigerated for up to two weeks. For preparation of assay inocula and to ensure low variability, at least 5 colonies are picked from the agar plates with an inoculating loop and aseptically transferred to a culture tube containing 3 mL of Mueller-Hinton Broth (supplemented with divalent cations to required levels based on Manufacturers' certification). The broth culture is grown for 3-5 hours at 37° C. with shaking at 200 rpm. Meanwhile, 2-fold serial dilutions of test compounds are conducted in a 96 well plate with a final volume of 75 μL per well at 2-fold the final desired concentration. After the dilution plates are set up the growing cultures are then diluted in a cuvette containing MH II broth and the optical density is measured at 600 nm. Inocula are diluted such that 75 μL of this culture in Mueller-Hinton Broth results in a starting bacterial concentration of 5×10^5 CFU/mL when added to the dilution plates. The plates are incubated 16-20 hours at 37° C. The MIC is read visually as the lowest concentration well with no bacterial growth.
To determine if test compounds were affected by various known β-lactamases, the inhibition of the growth of engineered strains of Escherichia coli harboring select single β-lactamases were tested. […]

T1 sequence (P0AD68 1-577): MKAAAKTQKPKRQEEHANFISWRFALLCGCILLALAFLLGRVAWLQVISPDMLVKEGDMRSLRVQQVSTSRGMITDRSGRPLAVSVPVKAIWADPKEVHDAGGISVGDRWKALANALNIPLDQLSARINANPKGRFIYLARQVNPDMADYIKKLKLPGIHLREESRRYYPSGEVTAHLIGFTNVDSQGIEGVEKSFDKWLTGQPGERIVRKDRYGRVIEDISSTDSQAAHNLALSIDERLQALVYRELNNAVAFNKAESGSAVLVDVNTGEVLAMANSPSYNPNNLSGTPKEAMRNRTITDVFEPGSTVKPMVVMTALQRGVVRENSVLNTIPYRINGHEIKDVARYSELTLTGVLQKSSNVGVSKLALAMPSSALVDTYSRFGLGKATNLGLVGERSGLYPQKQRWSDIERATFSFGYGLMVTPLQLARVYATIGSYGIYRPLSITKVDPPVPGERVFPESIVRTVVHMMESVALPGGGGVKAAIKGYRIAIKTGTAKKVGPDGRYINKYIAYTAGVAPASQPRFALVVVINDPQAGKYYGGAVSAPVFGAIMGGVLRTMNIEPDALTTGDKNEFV

Nc1nc(/C(=N/O)C(=O)N[C@H]2Cc3cccc(C(=O)O)c3OB2O)cs1 [Example 6, (R,Z)-3-(2-(2-aminothiazol-4-yl)-2-(hydroxyimino)acetamido)-2-hydroxy-3,4-dihydro-2H-benzo[e][1,2]oxaborinine-8-carboxylic Acid]
E. coli PBP3 Potency (E. coli PBP3): B (B represents a potency between 64 and 1000 μg/mL inclusive) | MIC [1]: 16 µg/mL
